Assay [1] concerns SARS-CoV-2. Description: Anti-SARS-CoV-2 activity, detection of viral genomes by RT-qPCR on infected cells. The assay is classed as cell-based. To be noted: for anti-SARS-CoV-2 activity in words: Vero E6 cells; for fold reduction in anti-SARS-CoV-2 activity: relative to PB28, Vero E6 cells. On the technique in general: Real-time PCR tracks product formation cycle by cycle.
Assay [2] has as its target T1, S1R (Cavia porcellus, UniProt Q60492).
T1 construct: [^3H]-( +)-Pentazocine on guinea pig brain according to the generally accepted protocol; from tissue; host or cells: guinea pig brain
To be noted: cited from earlier work.

The target of assay [3] is T2, S2R (Rattus norvegicus, UniProt Q5U3Y7).
T2 construct: [^3H]-DTG on rat liver masking with ( +)-Pentazocine according to the generally accepted protocol; from tissue; host or cells: rat liver
T2 sequence (Q5U3Y7 1-176): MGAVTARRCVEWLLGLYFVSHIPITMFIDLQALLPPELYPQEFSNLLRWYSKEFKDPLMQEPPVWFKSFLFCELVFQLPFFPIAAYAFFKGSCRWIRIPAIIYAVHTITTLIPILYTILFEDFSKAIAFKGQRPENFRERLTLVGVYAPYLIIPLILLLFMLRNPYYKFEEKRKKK
The note with it: [3H]-DTG, rat liver, masking with (+)-Pentazocine, cited from earlier work.

In assay [4] the target is T1, S1R. Description: S1R radioligand binding assay, [3H]-(+)-Pentazocine on guinea pig brain. To be noted: Table 1, compound 6 (no reference cited).
Assay [5] concerns the target T2, S2R. Description: S2R radioligand binding assay, [3H]-DTG on rat liver masking with (+)-Pentazocine. To be noted: Table 1, compound 6 (no reference cited).
Assay [6] has as its system SARS-CoV-2. The note with it: read-out: IC90 anti-SARS-CoV-2 activity in vitro; cited from earlier work.
The mark [7] stands for this setting: Table 1, RT-qPCR of viral genomes, Vero E6 cells infected with SARS-CoV-2, one representative experiment of at least three.
[8] abbreviates: Table 1, [3H]-(+)-Pentazocine, guinea pig brain, mean of three experiments in duplicate, read-out: Ki nM S1R.
Setting [9] is: Table 1, mean of three experiments in duplicate.
Where [10] appears, read: Table 1, RT-qPCR of viral genomes, Vero E6 cells infected with SARS-CoV-2, one representative experiment of at least three, read-out: IC50 (μM) SARS-CoV-2.
The mark [11] stands for this setting: Table 3, RT-qPCR of viral genomes, Vero E6 cells infected with SARS-CoV-2, read-out: IC50 (μM) SARS-CoV-2.
Where [12] appears, read: Table 3, [3H]-(+)-Pentazocine, guinea pig brain, read-out: Ki nM S1R.
The mark [13] stands for this setting: Table 4, RT-qPCR of viral genomes, Vero E6 cells infected with SARS-CoV-2.
Where [14] appears, read: Table 4, [3H]-(+)-Pentazocine, guinea pig brain, read-out: Ki Nm S1R.

The values below come from paper PMC10406941 (Scientific Reports, 2023).

Like-named read-outs stand apart in the source and are kept apart here.

T1 sequence (Q60492 whole entry): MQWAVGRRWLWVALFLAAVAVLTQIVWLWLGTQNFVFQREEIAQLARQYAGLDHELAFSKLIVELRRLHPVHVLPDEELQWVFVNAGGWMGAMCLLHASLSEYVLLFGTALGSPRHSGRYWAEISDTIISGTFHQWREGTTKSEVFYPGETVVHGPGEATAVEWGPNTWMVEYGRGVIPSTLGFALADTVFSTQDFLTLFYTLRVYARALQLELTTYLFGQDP

One may read the Ki as a measure of affinity in units of concentration, obtained from inhibition or displacement. As for `COc1cccc2c1CCCC2N1CCN(C2CCCCC2)CC1` (racemic) [Compound 1], in the assay with SARS-CoV-2 [1] (setting [7]), the “IC50 (μM) SARS-CoV-2” value is recorded as “NOT ACTIVE”. In addition, in the assay with SARS-CoV-2 [1], the “anti-SARS-CoV-2 activity in words” value is on record as “loss of activity”. In addition, the results for the Ki on S1R [2] (setting [8]) and on S2R [3] (setting [9]) were 0.4 nM and 7.9 nM, respectively.
By IC50 is commonly meant the concentration that gives 50% inhibition. Regarding `COc1cccc2c1CCCC2CN1CCN(C2CCCCC2)CC1` (racemic) [Compound 2], the IC50 with SARS-CoV-2 [1] (setting [10]) was determined as 5.9 µM. Moreover, in the assay with SARS-CoV-2 [1], the “fold reduction in anti-SARS-CoV-2 activity” value (from here on “fold reduction”) is reported as 20 fold. The figures for the Ki on S1R [2] (setting [8]) and on S2R [3] (setting [9]) were 0.31 nM and 16.4 nM, respectively.
`COc1cccc2c1CCCC2CCN1CCN(C2CCCCC2)CC1` (racemic) [Compound 3]: the IC50 in the assay with SARS-CoV-2 [1] (setting [10]) came to 12.6 µM. The “fold reduction” value with SARS-CoV-2 [1] is 40 fold. For the same compound, the inhibitory constant (Ki) on S1R [2] (setting [8]) was 1.57 nM; at S2R [3] (setting [9]), 21.1 nM.
Consider `COc1cccc2c1CCCC2CCCCN1CCN(C2CCCCC2)CC1` (racemic) [Compound 4], for which the IC50 in the assay on SARS-CoV-2 [1] (setting [10]) worked out at 0.32 µM. On S2R [3] (setting [9]), the Ki is 3.58 nM.
Consider `COc1cccc2c1CCCC2CCCCCN1CCN(C2CCCCC2)CC1` (racemic) [Compound 5], for which, in the assay with SARS-CoV-2 [1] (setting [10]), the IC50 was 0.19 µM. The Ki was 1.52 nM on S1R [2] (setting [8]) and 0.35 nM at S2R [3] (setting [9]).
On to `COc1cccc2c1CCCC2CCCCCCN1CCN(C2CCCCC2)CC1` (racemic) [Compound 6], for which the Ki was determined as 3.07 nM at S1R [4] and 103 nM at S2R [5]. The IC50 in the assay with SARS-CoV-2 [1] (setting [10]) stood at 1.32 µM. Further, the “fold reduction” value in the assay with SARS-CoV-2 [1] is “threefold less potent”.
As for `c1ccc2c(c1)CCCC2CCCN1CCN(C2CCCCC2)CC1` (racemic) [Compound 7], the half-maximal inhibitory concentration (IC50) in the assay on SARS-CoV-2 [1] (setting [10]) worked out at 0.438 µM. In addition, the Ki on S1R [2] (setting [8]) is 0.61 nM; at S2R [3] (setting [9]), 0.68 nM.
Turning to `c1ccc2c(c1)CCCC2CCCCN1CCN(C2CCCCC2)CC1` (racemic) [Compound 8], in the assay on SARS-CoV-2 [1] (setting [10]), the IC50 came to 0.317 µM. For the same compound, the Ki on S2R [3] (setting [9]) was 14.6 nM.
Regarding `c1ccc2c(c1)CCCC2CCCCCN1CCN(C2CCCCC2)CC1` (racemic) [Compound 9], the IC50 in the assay with SARS-CoV-2 [1] (setting [10]) turned out to be 0.19 µM. The Ki on S1R [2] (setting [8]) was 1.45 nM; at S2R [3] (setting [9]), 7.85 nM.
As to `COc1ccc2c(c1)CCCC2CCCN1CCN(C2CCCCC2)CC1` (racemic) [Compound 10], the IC50 in the assay on SARS-CoV-2 [1] (setting [10]) came out at 0.47 µM. The Ki on S1R [2] (setting [8]) was 0.36 nM; at S1R [2] (as quoted in the text of the docking section, read-out: Ki (S1R)), 0.38 nM; at S2R [3] (setting [9]), 5.42 nM.
`Oc1cccc2c1CCCC2CCCN1CCN(C2CCCCC2)CC1` (racemic) [Compound 15]: the “IC50 (μM) SARS-CoV-2” value in the assay on SARS-CoV-2 [1] (setting [7]) is reported as “NOT ACTIVE”. The “anti-SARS-CoV-2 activity in words” value in the assay on SARS-CoV-2 [1] is reported as “complete loss of antiviral activity”. At S2R [3] (setting [9]), the inhibition constant Ki is 2.66 nM.
Consider `Oc1ccc2c(c1)CCCC2CCCN1CCN(C2CCCCC2)CC1` (racemic) [Compound 16], for which the “IC50 (μM) SARS-CoV-2” value in the assay on SARS-CoV-2 [1] (setting [7]) was “NOT ACTIVE”. For the same compound, the “anti-SARS-CoV-2 activity in words” value with SARS-CoV-2 [1] is on record as “complete loss of antiviral activity”. Moreover, the Ki was 0.69 nM at S1R [2] (setting [8]) and 1.12 nM on S2R [3] (setting [9]).
As to `COc1cccc2c1CCCC2CCCN1CCN(C)CC1` (racemic) [Compound 23], in the assay on SARS-CoV-2 [1] (setting [11]), the IC50 is 5.78 µM. The “fold reduction” value with SARS-CoV-2 [1] turned out to be 20 fold. Besides, the Ki was 17.8 nM at S1R [2] (setting [12]) and 663 nM at S2R [3] (Table 3).
Consider `CCCN1CCN(CCCC2CCCc3c(OC)cccc32)CC1` (racemic) [Compound 24], for which the IC50 with SARS-CoV-2 [1] (setting [11]) is 2.26 µM. The “fold reduction” value in the assay with SARS-CoV-2 [1] is 8 fold. For the same compound, the Ki on S1R [2] (setting [12]) is 9.6 nM; on S2R [3] (Table 3), 42.5 nM.
In the case of `CCC(CC)N1CCN(CCCC2CCCc3c(OC)cccc32)CC1` (racemic) [Compound 25], the “IC50 (μM) SARS-CoV-2” value in the assay with SARS-CoV-2 [1] (Table 3, RT-qPCR of viral genomes, Vero E6 cells infected with SARS-CoV-2) is “NOT ACTIVE”. For the same compound, the “anti-SARS-CoV-2 activity in words” value in the assay on SARS-CoV-2 [1] is “no anti-SARS-CoV-2 activity”. Further, the Ki at S1R [2] (setting [12]) was 12 nM; on S2R [3] (Table 3) it was 12.7 nM.
With `COc1cccc2c1CCC[C@H]2CCCN1CCN(C2CCCCC2)CC1` [( +)-S-PB28], the IC50 with SARS-CoV-2 [1] (setting [10]) stood at 0.455 µM. The inhibitory constant (Ki) on S2R [3] (setting [9]) was 1.18 nM.
For the compound `COc1cccc2c1CCC[C@@H]2CCCN1CCN(C2CCCCC2)CC1` [(-)-R-PB28], the IC50 in the assay with SARS-CoV-2 [1] (setting [10]) was 0.309 µM. At S2R [3] (setting [9]), the Ki was 0.49 nM.
Consider `c1ccc2c(CCCN3CCN(C4CCCCC4)CC3)cccc2c1` [Compound 11], for which, in the assay with SARS-CoV-2 [1] (setting [10]), the IC50 is 0.94 µM. Also, the values for the Ki on S1R [2] (setting [8]) and at S2R [3] (setting [9]) were 2.16 nM and 0.69 nM, respectively.
In the case of `c1ccc2c(CCCCCN3CCN(C4CCCCC4)CC3)cccc2c1` [Compound 12], in the assay on SARS-CoV-2 [1] (setting [10]), the IC50 amounted to 0.52 µM. For the same compound, the Ki at S1R [2] (setting [8]) was 2.4 nM; on S2R [3] (setting [9]) it was 0.57 nM.
Consider `COc1cccc2c(CCCN3CCN(C4CCCCC4)CC3)cccc12` [Compound 13], for which the IC50 in the assay on SARS-CoV-2 [1] (setting [10]) came to 0.306 µM. The Ki on S2R [3] (setting [9]) is 9.24 nM.
In the case of `COc1ccc2c(CCCN3CCN(C4CCCCC4)CC3)cccc2c1` [Compound 14], in the assay with SARS-CoV-2 [1] (setting [7]), the “IC50 (μM) SARS-CoV-2” value is “NOT ACTIVE”. Besides, the “anti-SARS-CoV-2 activity in words” value with SARS-CoV-2 [1] is “complete loss of activity”. Further, the results for the inhibition constant Ki on S1R [2] (setting [8]) and at S2R [3] (setting [9]) were 3.16 nM and 9.02 nM, respectively.
With `Oc1ccc2c(CCCN3CCN(C4CCCCC4)CC3)cccc2c1` [Compound 17], the “IC50 (μM) SARS-CoV-2” value in the assay on SARS-CoV-2 [1] (setting [7]) is “NOT ACTIVE”. In the assay on SARS-CoV-2 [1], the “anti-SARS-CoV-2 activity in words” value is given as “complete loss of antiviral activity”. Besides, the Ki at S1R [2] (setting [8]) is 6.78 nM; on S2R [3] (setting [9]), 26.4 nM.
With `Oc1ccc2cccc(CCCN3CCN(C4CCCCC4)CC3)c2c1` [Compound 18], the “IC50 (μM) SARS-CoV-2” value in the assay with SARS-CoV-2 [1] (setting [7]) is given as “NOT ACTIVE”. Besides, in the assay on SARS-CoV-2 [1], the “anti-SARS-CoV-2 activity in words” value was “complete loss of antiviral activity”. For the same compound, the results for the inhibition constant (Ki) at S1R [2] (setting [8]) and at S2R [3] (setting [9]) were 5.48 nM and 11.8 nM, respectively.
Broadly, the IC90 is the concentration at which the effect reaches the 90% level. As for `COc1cccc2c1CCCC2CCCN1CCN(C2CCCCC2)CC1` (centres unmarked) [PB28, 1-Cyclohexyl-4-[3-(5-methoxy-1,2,3,4-tetrahydronaphthalen-1-yl)propyl]piperazine, reference compound], the IC50 in the assay on SARS-CoV-2 [1] (Severe acute respiratory syndrome coronavirus 2, Vero C1008, read-out: IC50 (μM) SARS-CoV-2) is 0.299 µM. In the assay on SARS-CoV-2 [6], the IC90 was 280 nM.
Consider `COc1ccc2c(c1)CCCC2CCCCN1CCC(C)CC1` (centres unmarked) [PB190, reference compound], for which the “IC50 (μM) SARS-CoV-2” value with SARS-CoV-2 [1] (setting [13]) was “NOT ACTIVE”. Moreover, the “anti-SARS-CoV-2 activity in words” value with SARS-CoV-2 [1] was “did not demonstrate any antiviral effect”. The Ki at S1R [2] (setting [14]) was 0.42 nM; at S2R [3] (Table 4) it was 36.3 nM.
Turning to `COc1ccc2c(CCCCN3CCC(C)CC3)cccc2c1` [PB212, reference compound], in the assay on SARS-CoV-2 [1] (setting [13]), the “IC50 (μM) SARS-CoV-2” value was “NOT ACTIVE”. Further, the “anti-SARS-CoV-2 activity in words” value in the assay with SARS-CoV-2 [1] is listed as “did not demonstrate any antiviral effect”. Further, the values for the inhibition constant Ki on S1R [2] (setting [14]) and at S2R [3] (Table 4) were 0.03 nM and 17.9 nM, respectively.
